Assay results: PubChem BioAssay (NCI)
Values joined by “and” are separate entries in the source; they are usually repeats but may differ in a detail not shown here. Identical values can stand only once.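 Exposure lasted 48 hours, with cells grown in 96-well plates and compounds tested at five concentrations. Here, GI50 denotes the concentration required for 50% inhibition of growth. TGI is the concentration that stops growth completely.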

Assays:
[1] = test system: MDA-N; assay: growth of human tumour cells (NCI), 48 h
[2] = test system: DMS 273 small cell lung; assay: growth of human tumour cells (NCI), 48 h

Structure (SMILES): CCOC(=O)n1c2ccccc2c(=O)n1CCO
- TGI [1]: > 100 µM

Structure (SMILES): CC1=C(C(=O)CC(=O)C(=O)Nc2ccccc2C)Sc2ccccc2N1
- TGI [2]: > 100 µM

Structure (SMILES): O=C1c2ccoc2C(=O)c2oc(=O)ccc21
- TGI [2]: 31.6 µM

Structure (SMILES): c1ccc2c(c1)[O][Sn][O]2
- GI50 [2]: 10.4 mg/L
- TGI [2]: > 150 mg/L

Structure (SMILES): CCOC(=O)COc1cccc2occc(=O)c12
- TGI [2]: > 100 µM

Structure (SMILES): O=C(CCC(=O)C1Cc2ccccc2C1=O)Nc1cccc(C(F)(F)F)c1 (configuration not stated)
- TGI [2]: > 100 µM

Structure (SMILES): CC(C)(C)c1cc(C(OCCl)(C(F)(F)F)C(F)(F)F)c2c(c1)C(C(F)(F)F)(C(F)(F)F)OC21c2ccccc2C(=O)c2ccccc21
- TGI [2]: > 100 µM

Structure (SMILES): NCC(Cc1ccccc1)P(=O)(O)O (configuration not stated)
- TGI [1]: > 100 µM

Structure (SMILES): Nc1nc(-c2ccccc2)cc(-c2cc(Cl)ccc2O)n1
- TGI [2]: > 100 µM

Structure (SMILES): O=c1c2cccc3cccc(c4n1CCCN=4)c32
- TGI [2]: > 100 µM

Structure (SMILES): O=C(O)Cn1ccc(=O)c2c([N+](=O)[O-])cccc21
- TGI [1]: > 100 µM

Structure (SMILES): CCC1=C(c2ccc(OC)cc2)CC[C@]2(CCNC2=O)[C@@H]1C
- TGI [1]: 58.3 µM

Structure (SMILES): COc1ccc2c3c(c(C(=O)O)oc13)C(CCC(=O)O)CC2 (configuration not stated)
- TGI [2]: > 100 µM

Structure (SMILES): CN(C)CCNC(=O)c1cccc2cc3ccc4ccccc4c3nc12
- TGI [2]: 0.163 µM

Structure (SMILES): Nc1c(C(=O)Nc2ccccc2O)[n+]([O-])c2ccccc2[n+]1[O-]
- TGI [2]: > 100 µM

Structure (SMILES): O=S(=O)(Cc1ccccc1)SCc1ccccc1
- TGI [2]: 98.2 µM

Structure (SMILES): N=C(N)c1ccc(OCCCCCOc2ccc(C(=N)N)cc2)cc1
- TGI [1]: 26.5 µM and 36 µM

Structure (SMILES): C1CCN2CC3CONC3C2C1 (configuration not stated)
- TGI [2]: > 100 µM

Structure (SMILES): O=[N+]([O-])c1ccc(/C=C\c2ccc3c(c2)OCO3)c([N+](=O)[O-])c1
- TGI [1]: 22.4 µM

Structure (SMILES): Cn1cc(NC(=O)c2cc(NC(=O)CCCCCCCC(=O)Nc3cc(C(=O)Nc4cc(C(=O)NCCC(=N)N)n(C)c4)n(C)c3)cn2C)cc1C(=O)NCCC(=N)N
- TGI [2]: 25 µM

Structure (SMILES): NNC(=O)N/N=C1\CNC(=O)C(=O)C1c1nc2ccccc2s1 (configuration not stated)
- TGI [2]: > 100 µM

Structure (SMILES): Cc1cc2c(cc1C)[n+](=O)c(C(=O)/C=C/c1ccccc1[N+](=O)[O-])c(C)n2[O-]
- TGI [2]: > 94.5 µM
- TGI [1]: > 100 µM

Structure (SMILES): C=CC(C)(O)CCC1C(=C)C(O)CC2C(C)(C)CCCC12C (configuration not stated)
- TGI [1]: 34.6 µM

Structure (SMILES): CC1(C)CC(O)CC(C)(C)N1.CC1(C)CC(O)CC(C)(C)N1.CC1(C)CC(O)CC(C)(C)N1.CC1(C)CC(O)CC(C)(C)N1.Cl.[Ti]
- GI50 [2]: > 100 µM
- TGI [2]: > 100 µM

Structure (SMILES): Nc1ncnc2sc(Nc3ccccc3)nc12
- TGI [2]: > 100 µM

Structure (SMILES): CCOc1ccc(/C=C2/C(=O)N=C(N)N=C2N)cc1OCC
- TGI [2]: > 100 µM

Structure (SMILES): CC(=O)c1c(O)c2c([nH]c1=O)CCCC2
- TGI [2]: 70.5 µM

Structure (SMILES): COc1cc2c(cc1OC)C(SC)C(=O)N(Cc1cccc(OC)c1OC)CC2 (configuration not stated)
- TGI [2]: 12.2 µM
- TGI [1]: 1.53 µM
